Patent US20260337208A1, “HETEROCYCLIC DERIVATIVES AS JANUS KINASE INHIBITORS” (CHIESI FARMACEUTICI S.P.A., priority 2022, published 2026)
Values belong to the molecule of their own block, whether it stands above or below them.

Columns and labels:
JAK2 = JAK2 (Homo sapiens, UniProt O60674); assay: Biochemical potency on JAK2, TR-FRET (LANCE Ultra kinase assay); conditions: ATP corresponding to Km; cell-free; read-out: JAK2 inhibitory activity (pIC50) (converted)
In short: (§1)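 ULight-JAK-1 (Tyr1023) peptide phosphorylation at Km ATP, 1.5 h r.t.; substrate solution held peptide 30/50/20/10 nM and ATP 20/0.7/0.2/12 μM, enzyme solution 0.15/0.083/0.025/0.144 ng/μL (JAK1/JAK2/JAK3/TYK2). EDTA stop, Eu-PT66 antibody TR-FRET read at 665 nm; 11-point 5-fold dilutions from 20 μM; IC50 by variable-slope fit.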

[1] = system: pSTAT6 in BEAS-2B human cell line; assay: Inhibition of IL-13 induced pSTAT6 in BEAS; assay type: cell-based; conditions: for IC50: Homo sapiens, BEAS-2B, 0.5 h, IL-13 trigger, 30 min, parent compound; for Fold difference parent vs predicted acid metabolite: ratio=IC50 predicted acid metabolite/IC50 ester
In short: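 BEAS-2B cells grown 48 h, pre-treated 30 min with compound, then stimulated 30 min with IL-13. Lysate pSTAT6 (Tyr641) measured by sandwich ELISA. Eleven 5-fold dilutions from 10 μM, in duplicate, fitted to IC50.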

JAK1 = JAK1 (Homo sapiens, UniProt P23458); assay: Biochemical potency on JAK1, TR-FRET (LANCE Ultra kinase assay); conditions: ATP corresponding to Km; cell-free; read-out: JAK1 inhibitory activity (pIC50) (converted)
Chain of JAK1 (P23458 whole entry): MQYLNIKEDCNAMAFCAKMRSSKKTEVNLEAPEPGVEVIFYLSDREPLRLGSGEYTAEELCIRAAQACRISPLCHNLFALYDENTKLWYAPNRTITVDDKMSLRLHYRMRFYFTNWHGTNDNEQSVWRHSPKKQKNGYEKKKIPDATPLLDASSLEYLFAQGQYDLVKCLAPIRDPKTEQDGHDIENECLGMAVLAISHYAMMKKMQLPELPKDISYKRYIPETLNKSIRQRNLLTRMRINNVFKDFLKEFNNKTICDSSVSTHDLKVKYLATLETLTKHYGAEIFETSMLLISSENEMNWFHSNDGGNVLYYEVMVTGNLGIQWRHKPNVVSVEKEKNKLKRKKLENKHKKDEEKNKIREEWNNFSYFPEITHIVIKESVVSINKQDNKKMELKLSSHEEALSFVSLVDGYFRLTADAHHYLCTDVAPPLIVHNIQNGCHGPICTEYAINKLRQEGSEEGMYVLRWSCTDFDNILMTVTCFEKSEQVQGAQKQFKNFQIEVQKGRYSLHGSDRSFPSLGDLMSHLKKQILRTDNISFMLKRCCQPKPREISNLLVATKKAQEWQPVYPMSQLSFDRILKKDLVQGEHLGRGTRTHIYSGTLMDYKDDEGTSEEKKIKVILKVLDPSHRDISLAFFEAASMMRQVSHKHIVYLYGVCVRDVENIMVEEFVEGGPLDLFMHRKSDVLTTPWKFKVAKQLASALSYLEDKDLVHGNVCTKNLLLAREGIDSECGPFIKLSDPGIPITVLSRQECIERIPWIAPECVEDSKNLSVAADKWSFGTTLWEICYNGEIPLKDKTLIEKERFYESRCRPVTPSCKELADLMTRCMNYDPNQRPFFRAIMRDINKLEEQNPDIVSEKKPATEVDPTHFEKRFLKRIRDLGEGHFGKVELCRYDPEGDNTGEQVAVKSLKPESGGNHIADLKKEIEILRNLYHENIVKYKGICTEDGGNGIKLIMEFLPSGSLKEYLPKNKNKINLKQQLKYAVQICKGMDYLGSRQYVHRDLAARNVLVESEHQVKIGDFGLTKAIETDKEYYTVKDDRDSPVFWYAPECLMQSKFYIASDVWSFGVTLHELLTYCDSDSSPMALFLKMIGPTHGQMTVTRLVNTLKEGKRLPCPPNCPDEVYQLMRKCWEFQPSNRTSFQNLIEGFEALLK
In short: as §1

TYK2 = TYK2 (Homo sapiens, UniProt P29597); assay: Biochemical potency on Tyk2, TR-FRET (LANCE Ultra kinase assay); conditions: ATP corresponding to Km; cell-free; read-out: TYK2 inhibitory activity (pIC50) (converted)
Chain of TYK2 (P29597 whole entry): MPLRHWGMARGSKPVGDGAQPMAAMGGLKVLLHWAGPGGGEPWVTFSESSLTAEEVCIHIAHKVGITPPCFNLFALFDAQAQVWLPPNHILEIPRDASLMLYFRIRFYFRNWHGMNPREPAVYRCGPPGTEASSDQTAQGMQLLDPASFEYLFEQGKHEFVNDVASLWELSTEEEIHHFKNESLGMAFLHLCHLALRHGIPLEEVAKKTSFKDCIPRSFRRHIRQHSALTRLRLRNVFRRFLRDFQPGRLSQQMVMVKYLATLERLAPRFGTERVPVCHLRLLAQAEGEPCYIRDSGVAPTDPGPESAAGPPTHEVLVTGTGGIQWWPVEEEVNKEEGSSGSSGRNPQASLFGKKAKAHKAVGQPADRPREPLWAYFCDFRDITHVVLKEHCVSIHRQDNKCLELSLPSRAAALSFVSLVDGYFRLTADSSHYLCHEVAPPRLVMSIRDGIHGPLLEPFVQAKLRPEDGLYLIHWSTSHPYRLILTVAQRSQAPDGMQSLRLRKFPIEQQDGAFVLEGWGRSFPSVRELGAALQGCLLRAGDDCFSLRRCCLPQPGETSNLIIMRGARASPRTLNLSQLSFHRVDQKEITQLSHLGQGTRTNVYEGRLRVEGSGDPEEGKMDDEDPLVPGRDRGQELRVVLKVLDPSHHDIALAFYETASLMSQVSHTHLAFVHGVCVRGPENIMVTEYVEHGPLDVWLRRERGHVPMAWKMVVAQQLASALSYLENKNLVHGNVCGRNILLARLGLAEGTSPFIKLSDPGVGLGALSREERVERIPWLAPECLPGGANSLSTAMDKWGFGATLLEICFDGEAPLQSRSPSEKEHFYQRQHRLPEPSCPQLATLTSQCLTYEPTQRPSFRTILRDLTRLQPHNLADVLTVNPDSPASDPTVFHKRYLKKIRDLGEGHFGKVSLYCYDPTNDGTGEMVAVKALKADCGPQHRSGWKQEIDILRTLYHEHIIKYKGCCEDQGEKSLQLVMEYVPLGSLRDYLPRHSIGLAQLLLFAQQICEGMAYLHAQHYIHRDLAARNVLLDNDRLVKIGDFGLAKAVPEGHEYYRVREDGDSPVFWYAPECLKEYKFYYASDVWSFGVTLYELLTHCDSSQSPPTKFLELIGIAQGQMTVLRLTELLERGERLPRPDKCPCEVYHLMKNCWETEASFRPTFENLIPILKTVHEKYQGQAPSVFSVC
In short: as §1

JAK3 = target: T1, JAK3 (Homo sapiens, UniProt P52333); assay: Biochemical potency on JAK3, TR-FRET (LANCE Ultra kinase assay); conditions: ATP corresponding to Km; cell-free; read-out: JAK3 inhibitory activity (pIC50) (converted)
T1 sequence (P52333 1-1124): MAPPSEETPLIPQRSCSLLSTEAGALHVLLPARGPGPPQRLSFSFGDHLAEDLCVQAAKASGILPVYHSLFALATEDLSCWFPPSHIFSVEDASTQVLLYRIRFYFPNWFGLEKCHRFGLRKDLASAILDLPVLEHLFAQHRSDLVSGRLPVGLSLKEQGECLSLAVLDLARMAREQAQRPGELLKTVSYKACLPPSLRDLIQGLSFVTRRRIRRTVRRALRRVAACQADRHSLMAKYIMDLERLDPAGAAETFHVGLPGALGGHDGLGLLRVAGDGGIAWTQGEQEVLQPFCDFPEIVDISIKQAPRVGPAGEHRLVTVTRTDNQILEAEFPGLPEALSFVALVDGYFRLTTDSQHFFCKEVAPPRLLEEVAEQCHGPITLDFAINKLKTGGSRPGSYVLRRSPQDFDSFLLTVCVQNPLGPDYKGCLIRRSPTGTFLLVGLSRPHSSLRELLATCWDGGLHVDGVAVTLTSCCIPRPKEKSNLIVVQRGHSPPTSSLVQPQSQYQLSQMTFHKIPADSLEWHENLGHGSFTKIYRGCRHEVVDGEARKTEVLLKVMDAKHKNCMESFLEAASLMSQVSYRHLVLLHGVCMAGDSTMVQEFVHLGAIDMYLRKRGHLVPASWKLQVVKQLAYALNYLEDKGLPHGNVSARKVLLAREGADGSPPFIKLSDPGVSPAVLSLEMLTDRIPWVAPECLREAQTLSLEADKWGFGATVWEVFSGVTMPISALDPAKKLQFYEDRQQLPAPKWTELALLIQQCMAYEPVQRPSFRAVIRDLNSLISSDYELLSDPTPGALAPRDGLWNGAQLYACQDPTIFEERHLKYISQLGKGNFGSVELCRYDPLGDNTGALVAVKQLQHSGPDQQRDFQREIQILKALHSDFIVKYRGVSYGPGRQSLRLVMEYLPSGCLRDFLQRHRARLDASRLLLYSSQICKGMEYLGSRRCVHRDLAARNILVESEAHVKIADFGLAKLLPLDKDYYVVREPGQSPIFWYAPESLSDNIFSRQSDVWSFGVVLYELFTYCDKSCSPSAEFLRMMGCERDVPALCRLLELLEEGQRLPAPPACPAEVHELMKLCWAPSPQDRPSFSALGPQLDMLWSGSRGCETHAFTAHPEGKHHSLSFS
In short: as §1

Chain of JAK2 (O60674 whole entry): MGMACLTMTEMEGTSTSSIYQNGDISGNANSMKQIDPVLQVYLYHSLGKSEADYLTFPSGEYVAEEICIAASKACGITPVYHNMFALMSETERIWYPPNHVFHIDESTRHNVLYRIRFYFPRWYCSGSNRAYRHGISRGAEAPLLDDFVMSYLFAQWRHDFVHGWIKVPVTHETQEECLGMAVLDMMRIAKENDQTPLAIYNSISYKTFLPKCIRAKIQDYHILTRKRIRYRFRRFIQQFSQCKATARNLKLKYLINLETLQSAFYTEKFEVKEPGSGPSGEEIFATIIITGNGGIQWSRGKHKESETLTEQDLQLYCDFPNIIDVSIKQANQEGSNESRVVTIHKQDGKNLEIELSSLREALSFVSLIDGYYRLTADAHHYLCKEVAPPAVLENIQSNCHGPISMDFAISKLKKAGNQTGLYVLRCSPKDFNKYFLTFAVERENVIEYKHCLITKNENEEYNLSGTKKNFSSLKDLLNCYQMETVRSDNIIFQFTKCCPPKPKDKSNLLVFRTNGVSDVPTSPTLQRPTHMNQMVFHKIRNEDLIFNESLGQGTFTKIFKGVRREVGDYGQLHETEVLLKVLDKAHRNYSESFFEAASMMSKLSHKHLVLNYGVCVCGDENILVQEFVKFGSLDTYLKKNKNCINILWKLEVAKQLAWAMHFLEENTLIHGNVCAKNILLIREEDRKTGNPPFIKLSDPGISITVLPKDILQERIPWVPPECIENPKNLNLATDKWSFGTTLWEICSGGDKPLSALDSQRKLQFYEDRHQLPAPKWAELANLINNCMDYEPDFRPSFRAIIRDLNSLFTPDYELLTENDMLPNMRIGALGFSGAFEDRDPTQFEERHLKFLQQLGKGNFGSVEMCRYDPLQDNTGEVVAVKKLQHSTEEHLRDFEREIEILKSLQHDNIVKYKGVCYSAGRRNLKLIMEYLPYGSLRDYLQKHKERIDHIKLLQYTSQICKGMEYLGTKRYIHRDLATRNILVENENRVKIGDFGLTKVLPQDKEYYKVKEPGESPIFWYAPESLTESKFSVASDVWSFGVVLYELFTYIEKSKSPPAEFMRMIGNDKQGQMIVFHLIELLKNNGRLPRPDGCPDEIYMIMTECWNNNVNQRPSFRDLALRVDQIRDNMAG

IC50 (JAK2): ≤ 5.01 nM
IC50 (JAK1): ≤ 5.01 nM
IC50 (TYK2): 5.01 to 50.1 nM
IC50 (JAK3): ≤ 5.01 nM
SMILES: CCOC(=O)C1CCN(CCOC(=O)Nc2nn(-c3cc4c(cc3OC)NCCO4)c3cc(-c4cnn5cccnc45)ncc23)CC1 [Example 41, ethyl 1-(2-(((1-(6-methoxy-3,4-dihydro-2H-benzo[b][1,4]oxazin-7-yl)-6-(pyrazolo[1,5-a]pyrimidin-3-yl)-1H-pyrazolo[4,3-c]pyridin-3-yl)carbamoyl)oxy)ethyl)piperidine-4-carboxylate]
IC50 [1]: ≤ 5.01 nM
Fold difference parent vs predicted acid metabolite [1]: kkk (200>ratio≥100)

IC50 (JAK2): ≤ 5.01 nM
IC50 (JAK1): ≤ 5.01 nM
IC50 (TYK2): 5.01 to 50.1 nM
IC50 (JAK3): ≤ 5.01 nM
SMILES: COc1cc2c(cc1-n1nc(C(=O)OCC3CN(C)CCO3)c3cnc(-c4cnn5cccnc45)cc31)OCCN2 (stereo not drawn) [Example 46, (4-methylmorpholin-2-yl)methyl 1-(6-methoxy-3,4-dihydro-2H-benzo[b][1,4]oxazin-7-yl)-6-(pyrazolo[1,5-a]pyrimidin-3-yl)-1H-pyrazolo[4,3-c]pyridine-3-carboxylate]
IC50 [1]: 5.01 to 50.1 nM
Fold difference parent vs predicted acid metabolite [1]: kkk (200>ratio≥100)

IC50 (JAK2): ≤ 5.01 nM
IC50 (JAK1): ≤ 5.01 nM
IC50 (TYK2): 5.01 to 50.1 nM
IC50 (JAK3): ≤ 5.01 nM
SMILES: COc1cc2c(cc1-n1nc(C(=O)NCCN3CCC(C(=O)OC4CC(C#N)C4)CC3)c3cnc(-c4cnn5cccnc45)cc31)OCCN2 (stereo not drawn) [Example 47, 3-cyanocyclobutyl 1-(2-(1-(6-methoxy-3,4-dihydro-2H-benzo[b][1,4]oxazin-7-yl)-6-(pyrazolo[1,5-a]pyrimidin-3-yl)-1H-pyrazolo[4,3-c]pyridine-3-carboxamido)ethyl)piperidine-4-carboxylate]
IC50 [1]: ≤ 5.01 nM
Fold difference parent vs predicted acid metabolite [1]: kkkk (ratio≥200)

IC50 (JAK2): ≤ 5.01 nM
IC50 (JAK1): ≤ 5.01 nM
IC50 (TYK2): 5.01 to 50.1 nM
IC50 (JAK3): ≤ 5.01 nM
SMILES: COc1cc2c(cc1-n1nc(C(=O)NCCN3CC[C@@H](C(=O)OCC(C)(C)C#N)C3)c3cnc(-c4cnn5cccnc45)cc31)OCCN2 [Example 49, 2-cyano-2-methylpropyl (R)-1-(2-(1-(6-methoxy-3,4-dihydro-2H-benzo[b][1,4]oxazin-7-yl)-6-(pyrazolo[1,5-a]pyrimidin-3-yl)-1H-pyrazolo[4,3-c]pyridine-3-carboxamido)ethyl)pyrrolidine-3-carboxylate]
IC50 [1]: ≤ 5.01 nM
Fold difference parent vs predicted acid metabolite [1]: kkk (200>ratio≥100)

IC50 (JAK2): ≤ 5.01 nM
IC50 (JAK1): ≤ 5.01 nM
IC50 (TYK2): 5.01 to 50.1 nM
IC50 (JAK3): ≤ 5.01 nM
SMILES: COc1cc2c(cc1-n1nc(C(=O)NCCN3CCC(CC(=O)O[C@@H]4CCN(CCF)C4)CC3)c3cnc(-c4cnn5cccnc45)cc31)OCCN2 [Example 52, (R)-1-(2-fluoroethyl)pyrrolidin-3-yl 2-(1-(2-(1-(6-methoxy-3,4-dihydro-2H-benzo[b][1,4]oxazin-7-yl)-6-(pyrazolo[1,5-a]pyrimidin-3-yl)-1H-pyrazolo[4,3-c]pyridine-3-carboxamido)ethyl)piperidin-4-yl)acetate]
IC50 [1]: 5.01 to 50.1 nM
Fold difference parent vs predicted acid metabolite [1]: kkk (200>ratio≥100)

The remaining lines, values behind:

SMILES: CCOC(=O)[C@H]1C[C@@H](OC(=O)Nc2nn(-c3cc4c(cc3OC)NCCO4)c3cc(-c4cnn5cccnc45)ncc23)C1 [Example 40, ethyl (1s,3s)-3-(((1-(6-methoxy-3,4-dihydro-2H-benzo[b][1,4]oxazin-7-yl)-6-(pyrazolo[1,5-a]pyrimidin-3-yl)-1H-pyrazolo[4,3-c]pyridin-3-yl)carbamoyl)oxy)cyclobutane-1-carboxylate]
IC50 (JAK2): ≤ 5.01 nM
IC50 [1]: 5.01 to 50.1 nM
Fold difference parent vs predicted acid metabolite [1]: kk (100>ratio≥10)
IC50 (JAK1): ≤ 5.01 nM
IC50 (TYK2): 5.01 to 50.1 nM
IC50 (JAK3): ≤ 5.01 nM

SMILES: COc1cc2c(cc1-n1nc(C(=O)NCCN3CCC(C(=O)OC4CCN(C)CC4)CC3)c3cnc(-c4cnn5cccnc45)cc31)OCCN2 [Example 42, 1-methylpiperidin-4-yl 1-(2-(1-(6-methoxy-3,4-dihydro-2H-benzo[b][1,4]oxazin-7-yl)-6-(pyrazolo[1,5-a]pyrimidin-3-yl)-1H-pyrazolo[4,3-c]pyridine-3-carboxamido)ethyl)piperidine-4-carboxylate]
IC50 (JAK2): ≤ 5.01 nM
IC50 [1]: 5.01 to 50.1 nM
Fold difference parent vs predicted acid metabolite [1]: kkk (200>ratio≥100)
IC50 (JAK1): ≤ 5.01 nM
IC50 (TYK2): 5.01 to 50.1 nM
IC50 (JAK3): ≤ 5.01 nM

SMILES: CCOC(=O)[C@@H]1CCN(CCNC(=O)c2nn(-c3cc4c(cc3OC)NCCO4)c3cc(-c4cnn5cccnc45)ncc23)C1 [Example 43, ethyl (R)-1-(2-(1-(6-methoxy-3,4-dihydro-2H-benzo[b][1,4]oxazin-7-yl)-6-(pyrazolo[1,5-a]pyrimidin-3-yl)-1H-pyrazolo[4,3-c]pyridine-3-carboxamido)ethyl)pyrrolidine-3-carboxylate]
IC50 (JAK2): ≤ 5.01 nM
IC50 [1]: 5.01 to 50.1 nM
Fold difference parent vs predicted acid metabolite [1]: kkk (200>ratio≥100)
IC50 (JAK1): ≤ 5.01 nM
IC50 (TYK2): 5.01 to 50.1 nM
IC50 (JAK3): ≤ 5.01 nM

SMILES: CCOC(=O)[C@H]1CCN(CCNC(=O)c2nn(-c3cc4c(cc3OC)NCCO4)c3cc(-c4cnn5cccnc45)ncc23)C1 [Example 44, ethyl (S)-1-(2-(1-(6-methoxy-3,4-dihydro-2H-benzo[b][1,4]oxazin-7-yl)-6-(pyrazolo[1,5-a]pyrimidin-3-yl)-1H-pyrazolo[4,3-c]pyridine-3-carboxamido)ethyl)pyrrolidine-3-carboxylate]
IC50 (JAK2): ≤ 5.01 nM
IC50 [1]: 5.01 to 50.1 nM
Fold difference parent vs predicted acid metabolite [1]: kkkk (ratio≥200)
IC50 (JAK1): ≤ 5.01 nM
IC50 (TYK2): 5.01 to 50.1 nM
IC50 (JAK3): ≤ 5.01 nM

SMILES: COc1cc2c(cc1-n1nc(C(=O)NCCN3CCC(C(=O)OC(C)C)CC3)c3cnc(-c4cnn5cccnc45)cc31)OCCN2 [Example 45, isopropyl 1-(2-(1-(6-methoxy-3,4-dihydro-2H-benzo[b][1,4]oxazin-7-yl)-6-(pyrazolo[1,5-a]pyrimidin-3-yl)-1H-pyrazolo[4,3-c]pyridine-3-carboxamido)ethyl)piperidine-4-carboxylate]
IC50 (JAK2): ≤ 5.01 nM
IC50 [1]: ≤ 5.01 nM
Fold difference parent vs predicted acid metabolite [1]: kkkk (ratio≥200)
IC50 (JAK1): ≤ 5.01 nM
IC50 (TYK2): 5.01 to 50.1 nM
IC50 (JAK3): ≤ 5.01 nM

SMILES: COc1cc2c(cc1-n1nc(C(=O)NCCN3CCC(CC(=O)OCC(C)(C)O)CC3)c3cnc(-c4cnn5cccnc45)cc31)OCCN2 [Example 48, 2-hydroxy-2-methylpropyl 2-(1-(2-(1-(6-methoxy-3,4-dihydro-2H-benzo[b][1,4]oxazin-7-yl)-6-(pyrazolo[1,5-a]pyrimidin-3-yl)-1H-pyrazolo[4,3-c]pyridine-3-carboxamido)ethyl)piperidin-4-yl)acetate]
IC50 (JAK2): ≤ 5.01 nM
IC50 [1]: 5.01 to 50.1 nM
Fold difference parent vs predicted acid metabolite [1]: kkkk (ratio≥200)
IC50 (JAK1): ≤ 5.01 nM
IC50 (TYK2): 5.01 to 50.1 nM
IC50 (JAK3): ≤ 5.01 nM

SMILES: COc1cc2c(cc1-n1nc(C(=O)NCCN3CCC(C(=O)O[C@H]4CN(C)C[C@@H]4F)CC3)c3cnc(-c4cnn5cccnc45)cc31)OCCN2 [Example 50, (3S,4S)-4-fluoro-1-methylpyrrolidin-3-yl 1-(2-(1-(6-methoxy-3,4-dihydro-2H-benzo[b][1,4]oxazin-7-yl)-6-(pyrazolo[1,5-a]pyrimidin-3-yl)-1H-pyrazolo[4,3-c]pyridine-3-carboxamido)ethyl)piperidine-4-carboxylate]
IC50 (JAK2): ≤ 5.01 nM
IC50 [1]: ≤ 5.01 nM
Fold difference parent vs predicted acid metabolite [1]: kkkk (ratio≥200)
IC50 (JAK1): ≤ 5.01 nM
IC50 (TYK2): 5.01 to 50.1 nM
IC50 (JAK3): ≤ 5.01 nM
